“And” between values parts separate entries of the source, which are not always exact repeats. Equal values may be shown once. Read-outs that look alike come from different tables or passages of the source.
Key:
[1] = In vitro metabolic stability in rat liver microsomes; assay type: in vitro ADME; conditions: 1 µM, up to 60 min, NADPH or UDPGA
Method: (§1) In vitro incubation dependent on NADPH: SGC003F was added into rat and human liver microsomes diluted in PBS (100 mM, pH 7.3). NADPH was introduced into the system. The NADPH had been pre-equilibrated under the same conditions for 5 min to initiate the enzymatic reaction. The incubation mixture was meticulously prepared to achieve the following final concentrations: 1 µM for SGC003F, 0.5 mg/mL for the liver microsomal protein, and 1 mM for NADPH.
(§2) In vitro incubation dependent on UDPGA: rat and human liver microsomes diluted in PBS (100 mM, pH 7.3) were mixed with alamethicin and then placed on ice for 15 min before the addition of the working solution of SGC003F. After preincubation in a water bath at 37 °C for 5 min, UDPGA, which had been preincubated for 5 min was added to initiate the reaction. The final concentrations in the incubation system were as follows: 1 μM for SGC003F, 0.5 mg/mL for liver microsomal protein concentration, 5 mM for UDPGA, and 25 μg/mL for alamethicin.
(§3) Positive probe substrate assays were utilized to ensure normal activity of the incubation system. […] Finally, 60 μL supernatant was taken and diluted with 60 μL of 50% acetonitrile before being analyzed by LC-MS/MS.

[2] = In vitro metabolic stability in human liver microsomes; assay type: in vitro ADME; conditions: 1 µM, up to 60 min, NADPH or UDPGA
Method: as §1, §2, §3

[3] = Urinary and fecal cumulative excretion of SGC003F in rats with or without tariquidar; assay type: in vivo; conditions: rat, SGC003F p.o. 1 mg/kg; for dose excreted: male, SD, urine and faeces
Method: In total, 18 male SD rats were randomly divided into three groups, with 6 rats in each group. Group I: SGC003F (p.o., 1 mg/kg) + blank vehicle (control group); Group Ⅱ: SGC003F (p.o., 1 mg/kg) + tariquidar (i.v., 7.5 mg/kg); Group III: SGC003F (p.o., 1 mg/kg) + tariquidar (p.o., 15 mg/kg). The rats were fasted for 12 h before oral administration. After administration, the rats were placed immediately in a metabolic cage and resumed feeding for 2 h. Urine and fecal samples were collected at 0–4, 4–8, 8–12, 12–24, 24–36, 36–48, 48–72, 72–96, and 96–120 h after administration. Fecal samples were homogenized with acetonitrile at a ratio of 1:4 (w/v) and stored at −40 °C for analysis.

[4] = single, within 120 h, parent drug
[5] = tariquidar i.v. 7.5 mg/kg, 120 h
[6] = tariquidar p.o. 15 mg/kg, 120 h
[7] = with tariquidar i.v. 7.5 mg/kg, 120 h
[8] = with tariquidar p.o. 15 mg/kg, 120 h

## COC(=O)Nc1c(N)nc(-c2nn(Cc3sccc3F)c3ncc(F)cc23)nc1N [SGC003F]
[1]
  Metabolic stability (percentage of drug remaining over time): no significant metabolic elimination
[2]
  Metabolic stability (percentage of drug remaining over time): no significant metabolic elimination
[3]; oral, with tariquidar i.v. 7.5 mg/kg, 120 h, read-out: U + F (total urinary and fecal recovery)
  dose excreted: 37.9 ± 5.99%
[3]; oral, with tariquidar p.o. 15 mg/kg, 120 h, read-out: U + F (total urinary and fecal recovery)
  dose excreted: 36.7 ± 3.36%
[3]; po, 1 mg/kg, single, within 120 h, read-out: U + F (total urinary and fecal recovery of parent drug)
  dose excreted: 71.5 ± 15.1%
[3]; after co-administration of tariquidar
  Total cumulative urinary and fecal excretion relative to control group: 50%
[3]; [4]
  F (cumulative fecal excretion): 59.5 ± 14.4%
  U (cumulative urinary excretion): 11.9 ± 1.36%
[3]; [5]
  F (fecal), Ratio 1 (with Tar (i.v.)/single): 0.32
  U + F, Ratio 1 (with Tar (i.v.)/single): 0.53
  U, Ratio 1 (with Tar (i.v.)/single): 1.56
[3]; [6]
  F (fecal), Ratio 2 (with Tar (p.o.)/single): 0.19
  U + F, Ratio 2 (with Tar (p.o.)/single): 0.51
  U, Ratio 2 (with Tar (p.o.)/single): 2.13
[3]; [7]
  F (cumulative fecal excretion): 19.3% and 19.3 ± 2.31 %
  U (cumulative urinary excretion): 18.6% and 18.6 ± 4.37%
[3]; [8]
  F (cumulative fecal excretion): 11.5% and 11.5 ± 2.61 %
  U (cumulative urinary excretion): 25.3% and 25.3 ± 1.62%

— paper PMC11435065, “Inhibition of P-Glycoprotein Asymmetrically Alters the In Vivo Exposure Profile of SGC003F: A Novel Guanylate Cyclase Stimulator” (Pharmaceuticals, 2024)
